The results in this text go back to ChEMBL document CHEMBL5244246, “Recent advances in chemistry and bioactivity of marine cyanobacteria Moorea species” (Eur J Med Chem, 2020).

In brackets after ≈: the same amount, converted by molar mass. Several values for one entry are separate records, joined by “and”; a condition that tells them apart may be missing. Identical values can stand only once.

One may read the inhibition as the percentage by which the read-out fell short of the control. By IC50 is commonly meant the concentration that inhibits the measured activity by half. The term LD50 denotes the dose expected to kill half of the subjects tested.

One data set relates to Nitzschia amabilis. The experiment in a line: Growth inhibition of marine diatom assessed as inhibition rate at 10 ug/ml relative to control. Format: functional.
The test system of another data set is N2a. Nature of the data set: Cytotoxicity against mouse Neuro2a cells assessed as inhibition of cell growth. Format: functional, cell-based.
Data set [1] can be described thus: Toxicity in brine shrimp assessed as lethal dose. Conditions: artemia salina; read-out: LD50 (the source's name).
In data set [2] the test system is L1210. The experiment in a line: Cytotoxicity against mouse L1210 cells assessed as inhibition of cell growth. Format: functional, cell-based.
In data set [3] the test system is L1210. The experiment in a line: Cytotoxicity against mouse L1210 cells assessed as inhibition of cell growth at 10 ug/mL relative to control. Format: functional. Conditions: for inhibition at 10 µg/mL: Mus musculus, L1210, dose 10 µg/ml; for inhibition (INH): dose 10 µg/ml.
The test system of the next data set is MCF7. Nature of the data set: Cytotoxicity against human MCF7 cells assessed as inhibition of cell growth. Format: functional, cell-based.
For a further data set, the system named is NCI-H460. Nature of the data set: Cytotoxicity against human NCI-H460 cells. Format: functional, cell-based.
Another data set concerns HeLa. The experiment in a line: Cytotoxicity against human HeLa cells assessed as inhibition of cell growth incubated for 48 hrs by WST-8 colorimetric assay. Format: functional, cell-based. (Tetrazolium dyes change colour on reduction, which living cells bring about.)
The nature of data set [4]: Toxicity in shrimp assessed as lethal dose. As to conditions: palaemon paucidens.

As for `CO[C@@H](CC[C@H](C)[C@H]1O[C@@]23C[C@H](OC(=O)C[C@@H]([C@@H](C)O)OC(=O)C[C@](OC)(O2)[C@H](C)CC3(C)C)[C@@H]1C)c1cc(O)ccc1Br`, in the data set on Nitzschia amabilis, the inhibition at 10 µg/mL stood at 30%.
As for `CCC[C@H]1NC(=O)c2csc(n2)[C@H](C)NC(=O)[C@H](C(C)C)N(C)C(=O)[C@H](Cc2ccccc2)N(C)C(=O)[C@H](C)OC(=O)[C@@H]1C` [ULONGAMIDE A], in the data set with N2a (n2a), the IC50 was 6 µM and 16 µM. In addition, the LC50 in data set [1] was determined as 18 µM.
`CO[C@@H](CC[C@H](C)[C@@H]1CC=C[C@]2(O1)[C@H](C(=O)O[C@@H]1CC(=O)O[C@@H]1C)C(=O)[C@H](C)CC2(C)C)c1cc(O)ccc1Br`: in the data set on Nitzschia amabilis, the inhibition at 10 µg/mL was 30%.
Consider `CCCCCCCC[C@@H](C/C=C/CCC(=O)N(C)C/C(=C\Cl)C/C(=C\C(=O)N1C[C@H](O)CC1=O)OC)OC`, for which, in the data set on L1210 [2], the IC50 came out at 2.9 µM.
Turning to `CO[C@@H](CC[C@H](C)[C@H]1O[C@@]23C[C@H](OC(=O)C[C@H]([C@@H](C)O)OC(=O)/C=C(\O2)[C@@](C)(O)CC3(C)C)[C@@H]1C)c1cccc(O)c1`, the inhibition at 10 µg/mL with Nitzschia amabilis stood at 30%.
Take `CO[C@@H](CC[C@H](C)C1O[C@@]2(C=C[C@@H]1C)[C@H](C(=O)O[C@@H]1CC(=O)O[C@@H]1C)C(=O)[C@H](C)CC2(C)C)c1cccc(O)c1` (some centres not stated): the inhibition at 10 µg/mL in the data set with Nitzschia amabilis was 30%.
On the same count and under the same terms, the same measure for `CO[C@@H](CC[C@H](C)[C@H]1O[C@]23C[C@H](OC(=O)C[C@@H]([C@@H](C)O)OC(=O)CC(=C(C)CC2(C)C)O3)[C@@H]1C)c1cccc(O)c1`: 30%.
Regarding `CO[C@@H](CC[C@H](C)[C@H]1O[C@@]23C[C@H](OC(=O)C[C@H]([C@@H](C)O)OC(=O)/C=C(\O2)[C@@](C)(OO)CC3(C)C)[C@@H]1C)c1cccc(O)c1`, the inhibition at 10 µg/mL with L1210 [3] is 10%.
With `CC(=O)n1c(=O)ccn([C@H]2C[C@H](O)[C@@H](CO)O2)c1=O`, the IC50 in the data set on MCF7 is 18.2 µg/mL (≈ 67.3 µM).
With `O=c1ccn([C@H]2C[C@H](O)[C@@H](CO)O2)c(=O)n1CCc1ccccc1`, in the data set on MCF7, the IC50 came to 18.2 µg/mL (≈ 54.8 µM).
Regarding `CCCCCCCC[C@@H](C/C=C/CCC(=O)NC/C(=C/Cl)[C@]12O[C@H]1[C@H](O)CCC2=O)OC`, the IC50 came out at 4 µM in the data set with NCI-H460 and 4 µM with N2a (Mus musculus, N2a).
Consider `CO[C@@H](CC[C@H](C)[C@H]1O[C@@]23C[C@H](OC(=O)C[C@H]([C@@H](C)O)OC(=O)/C=C(\O2)[C@]2(CO2)CC3(C)C)[C@@H]1C)c1cc(O)ccc1Br`, for which, in the data set on L1210 [3], the “inhibition (INH)” value was 10% and 25%. Moreover, the inhibition at 10 µg/mL in the data set on Nitzschia amabilis came to 30%.
With `CC[C@H](C)[C@H]1C(=O)N(C)[C@@H](C)C(=O)O[C@H](C(C)(C)C)C[C@@H](C)C[C@H](O)[C@H](C)C2=NC(/C=C(\C)C(=O)N[C@@H](Cc3ccc(OC)cc3)C(=O)N(C)[C@@H](C)C(=O)N1C)CS2` (some centres not stated), the IC50 in the data set with NCI-H460 is 0.002 µM.
Regarding `CO/C(=C/C(=O)N1C(=O)C=C[C@@H]1C)CCNC(=O)CC/C=C/C(C)CC/C(=C\Cl)CCCC#CBr` (some centres not stated), the IC50 in the data set on NCI-H460 stood at 15 µM; in the data set on N2a (Mus musculus, N2a), 15 µM.
In the case of `CCCCCCCC[C@@H](C/C=C/CCC(=O)N(C)C/C(=C\Cl)C/C(=C\C(=O)N1CC(OC)=CC1=O)OC)OC`, in the data set on L1210 [2], the IC50 was found to be 2.9 µM.
In the case of `CC[C@@H](C)[C@H]1C(=O)N2CCC[C@H]2C(=O)O[C@H](C(C)(C)C)C[C@@H](C)C[C@H](O)[C@H](C)C2=N[C@@H](/C=C(\C)C(=O)N[C@@H](Cc3ccc(OCCCCCCCn4cc(-c5ccccc5)nn4)cc3)C(=O)N(C)[C@@H](C)C(=O)N1C)CS2`, in the data set on HeLa, the IC50 was determined as 0.05 µM.
In the case of `CCCCCCCCCCCCCC/C=C/CCC1OC1C(=O)N[C@H](C)CO` (some centres not stated), in [1], the LC50 worked out at 13 µM.
On to `CO[C@@H](CC[C@H](C)[C@H]1OC2=C(/C(=C/C(=O)O[C@@H]3CC(=O)O[C@@H]3C)[C@H](C)CC2(C)C)[C@H](OC)[C@@H]1C)c1cc(O)ccc1Br`, for which the inhibition at 10 µg/mL in the data set with Nitzschia amabilis turned out to be 30%.
For `CCCCCCCC[C@@H](C/C=C/CCC(=O)NC/C(=C/Cl)C1=CCCCC1=O)OC`, the IC50 in the data set with NCI-H460 is 1.1 µM; in the data set on N2a (Mus musculus, N2a), 0.49 µM.
As to `COC(=O)C(CCC#CC=C(Cl)Cl)C(CCC/C=C/CC(Cl)Cl)NC=O` (configuration not stated), the LC50 in data set [1] was determined as 1.7 µg/mL.
On the same count and under the same terms, the same measure for `COC(=O)[C@H](CCC#CC=C(Cl)Cl)[C@@H](CCCC#CCC(Cl)Cl)NC=O`: 1.7 µg/mL.
In the case of `CO[C@@H](CC[C@H](C)[C@H]1O[C@@]23C[C@H](OC(=O)C[C@H]([C@@H](C)O)OC(=O)C[C@](O)(O2)[C@H](C)CC3(C)C)[C@@H]1C)c1cccc(O)c1` [DEBROMOAPLYSIATOXIN], the inhibition at 10 µg/mL in the data set on Nitzschia amabilis worked out at 30%.
`CCC1CC(C)CC(=O)N(C)/C=C/CCC(C)C(=O)N[C@@H](C(C)C)C(=O)N(C)[C@@H](Cc2ccccc2)C(=O)N(C)[C@@H]([C@@H](C)O)C(=O)N(C)[C@@H](Cc2ccccc2)C(=O)O1` (some centres not stated): the IC50 with N2a (Mus musculus, N2a) amounted to 6 µM. The LC50 in data set [1] came out at 9 µM.
With `C=CC/C=C/N(C)C(=O)CCCCCCCC/C=C/[C@H](CSSC[C@@H](/C=C/CCCCCCCCC(=O)N(C)/C=C/CC=C)NC(C)=O)NC(C)=O`, the concentration for half-maximal inhibition (IC50) with N2a (Mus musculus, N2a) is 1.4 µg/mL.
For `CCCCCCCCC(O)C/C=C/CCC(=O)N(C)C/C(=C\Cl)C/C(=C\C(=O)N1CC(OC)=CC1=O)OC` (configuration not stated), the LD50 in [4] was 33.3 mg/kg. Moreover, the IC50 with L1210 [2] turned out to be 2.9 µM.
For `COC(=O)C(CCCCCC(Cl)Cl)C(CCCC#CC=C(Cl)Cl)NC=O` (configuration not stated), the LC50 in data set [1] was found to be 1.7 µg/mL.
Regarding `CO[C@@H](CC[C@H](C)[C@H]1O[C@]23C[C@H](OC(=O)C[C@H]([C@@H](C)O)OC(=O)C(O)C(=C(C)CC2(C)C)O3)[C@@H]1C)c1cc(O)ccc1Br` (some centres not stated), in the data set on L1210 [3], the inhibition at 10 µg/mL was determined as 10% and the “inhibition (INH)” value turned out to be 20%. Moreover, in the data set with Nitzschia amabilis, the inhibition at 10 µg/mL stood at 30%.
Take `CO[C@@H](CC[C@H](C)[C@H]1O[C@@]23C[C@H](OC(=O)C[C@H]([C@@H](C)O)OC(=O)/C=C(\O2)[C@@](C)(O)CC3(C)C)[C@@H]1C)c1cc(O)ccc1Br`: in the data set on L1210 [3], the inhibition at 10 µg/mL came out at 10% and the “inhibition (INH)” value was determined as 20%. Moreover, in the data set on Nitzschia amabilis, the inhibition at 10 µg/mL stood at 30%.
Consider `CCCCCCCCCCCC/C=C/C[C@@H](O)[C@H](CO[C@@H]1O[C@H](CO)[C@@H](O)[C@H](O)[C@H]1O)NC(=O)CCCCCCCCCCCCCCCCCCCCCCCCC`, for which the IC50 in the data set on MCF7 turned out to be 18.2 µg/mL (≈ 21.7 µM).
For `CO[C@@H](CC[C@H](C)[C@H]1O[C@@]23C[C@H](OC(=O)C[C@H]([C@@H](C)O)OC(=O)/C=C(\O2)[C@@](C)(OO)CC3(C)C)[C@@H]1C)c1cc(O)ccc1Br`, the inhibition at 10 µg/mL with Nitzschia amabilis was 30%.
`COc1ccc(C[C@@H]2NC(=O)/C(C)=C/C3CSC(=N3)[C@@H](C)[C@@H](O)C[C@H](C)C[C@@H](C(C)(C)C)OC(=O)[C@H](C)N(C)C(=O)[C@H](C(C)C)N(C)C(=O)[C@H](C)N(C)C2=O)cc1` (some centres not stated) showed an IC50 with NCI-H460 of 0.014 µM.
As to `CO[C@@H](CC[C@H](C)[C@H]1O[C@@]2(C[C@H](OC)[C@@H]1C)OC(CC(=O)O[C@@H]1CC(=O)O[C@@H]1C)=C(C)CC2(C)C)c1cc(O)ccc1Br`, in the data set on Nitzschia amabilis, the inhibition at 10 µg/mL stood at 30%.
As for `CCCCCCCCCCC[C@]1(CO)CCCC(=O)O1` [TANIKOLIDE], the LC50 in data set [1] was found to be 3.6 µg/mL.
With `CO[C@@H](CC[C@H](C)[C@H]1O[C@]23C[C@H](OC(=O)C[C@H]([C@@H](C)O)OC(=O)CC(=C(C)CC2(C)C)O3)[C@@H]1C)c1cc(O)ccc1Br`, in the data set on Nitzschia amabilis, the inhibition at 10 µg/mL worked out at 30%.
With `COC(=O)C(CCC#CC=C(Cl)Cl)C(CCCC#CCC(Cl)Cl)NC=O` (configuration not stated), the LC50 in [1] worked out at 1.7 µg/mL.
On the same count and under the same terms, the same measure for `COC(=O)C(CCCCCC(Cl)Cl)C(CCCC#C/C=C/Cl)NC=O` (configuration not stated): 1.7 µg/mL.
